Data as given in patent publication US7700592B2, “α2C adrenoreceptor agonists” (Schering Corporation, priority 2005, dated 2010).

Biological target: T1, α2C receptor (Homo sapiens, UniProt P18825)
T1 sequence (P18825 1-462): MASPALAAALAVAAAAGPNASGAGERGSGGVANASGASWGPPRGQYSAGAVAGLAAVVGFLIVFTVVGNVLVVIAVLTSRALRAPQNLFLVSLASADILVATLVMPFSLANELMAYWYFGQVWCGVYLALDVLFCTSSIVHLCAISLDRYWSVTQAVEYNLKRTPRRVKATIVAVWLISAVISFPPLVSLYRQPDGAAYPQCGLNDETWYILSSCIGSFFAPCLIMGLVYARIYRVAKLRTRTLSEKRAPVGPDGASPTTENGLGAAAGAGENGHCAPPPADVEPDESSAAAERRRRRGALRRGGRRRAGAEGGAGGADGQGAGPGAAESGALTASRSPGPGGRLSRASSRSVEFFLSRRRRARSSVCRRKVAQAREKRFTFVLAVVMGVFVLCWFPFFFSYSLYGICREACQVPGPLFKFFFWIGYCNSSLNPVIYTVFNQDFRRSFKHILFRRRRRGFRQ
Assay: GTPγS assay, efficacy agonist activity (Emax) for α2C
Format: biochemical
Details: active agonist = efficacy at α2C ≧30% Emax; functionally selective = additionally efficacy at α2A ≦30% Emax (GTPγS assay)
Text: For the purposes of this present invention, a compound is defined to be an active agonist of the α2C receptor subtype if the compound's efficacy at the α2C receptor is ≧30% Emax (GTPγS assay). A compound is a functionally selective agonist of the α2C receptor subtype over the α2A receptor subtype if the compound's efficacy at the α2C receptor is ≧30% Emax (GTPγS assay) and its efficacy at the α2A receptor is ≦30% Emax (GTPγS assay).
Efficacy agonist activity values (Emax, GTPγS assay) for α2C were determined by following the general procedure detailed by Umland et al (“Receptor reserve analysis of the human α2c-adrenoceptor using [^35S]GTPγS and cAMP functional assays” European Journal of Pharmacology 2001, 411, 211-221). For the purposes of the present invention, a compound is defined to be an active agonist of the α2C receptor subtype if the compound's efficacy at the α2C receptor is ≧30% Emax (GTPγS assay). A compound is a functionally selective agonist of the α2C receptor subtype over the α2A receptor subtype if the compound's efficacy at the α2C receptor is […] Emax (GTPγS assay) and its efficacy at the α2A receptor is ≦30% Emax (GTPγS assay).

SMILES	Efficacy agonist activity (Emax, GTPγS assay) for α2C: evaluated as active or functionally selective agonist
CCN(C(=O)NOC)c1ccc2c(c1)N(Cc1c[nH]cn1)CCO2 [Compound 244]	active or functionally selective agonists of the α2C receptor subtype
CCNC(=O)N(CC)c1ccc2c(c1)N(Cc1c[nH]cn1)CCO2 [Compound 245]	active or functionally selective agonists of the α2C receptor subtype
COCCCOC(=O)Nc1ccc2c(c1)N(Cc1c[nH]cn1)CCO2 [Compound 246]	active or functionally selective agonists of the α2C receptor subtype
N#CCCOC(=O)Nc1ccc2c(c1)N(Cc1c[nH]cn1)CCO2 [Compound 247]	active or functionally selective agonists of the α2C receptor subtype
N#Cc1ccc(COC(=O)Nc2ccc3c(c2)N(Cc2c[nH]cn2)CCO3)cc1 [Compound 248]	active or functionally selective agonists of the α2C receptor subtype
CSCCOC(=O)Nc1ccc2c(c1)N(Cc1c[nH]cn1)CCO2 [Compound 249]	active or functionally selective agonists of the α2C receptor subtype
CS(=O)(=O)CCOC(=O)Nc1ccc2c(c1)N(Cc1c[nH]cn1)CCO2 [Compound 250]	active or functionally selective agonists of the α2C receptor subtype
CCN(C(=O)C#CC1CC1)c1ccc2c(c1)N(Cc1c[nH]cn1)CCO2 [Compound 251]	active or functionally selective agonists of the α2C receptor subtype
N#Cc1cc(Cl)c2c(c1)N(Cc1c[nH]cn1)CCO2 [Compound 253]	active or functionally selective agonists of the α2C receptor subtype
CCCCOC(=O)N(C)c1ccc2c(c1)N(Cc1c[nH]cn1)CCO2 [Compound 256]	active or functionally selective agonists of the α2C receptor subtype
CCCOC(=O)N(C)c1ccc2c(c1)N(Cc1c[nH]cn1)CCO2 [Compound 257]	active or functionally selective agonists of the α2C receptor subtype
CN(C(=O)CCCOc1ccccc1)c1ccc2c(c1)N(Cc1c[nH]cn1)CCO2 [Compound 259]	active or functionally selective agonists of the α2C receptor subtype
COCCOCC(=O)N(C)c1ccc2c(c1)N(Cc1c[nH]cn1)CCO2 [Compound 260]	active or functionally selective agonists of the α2C receptor subtype
CC#CCOC(=O)N(C)c1ccc2c(c1)N(Cc1c[nH]cn1)CCO2 [Compound 262]	active or functionally selective agonists of the α2C receptor subtype
CCCCCCOC(=O)N(C)c1ccc2c(c1)N(Cc1c[nH]cn1)CCO2 [Compound 263]	active or functionally selective agonists of the α2C receptor subtype
CCCOC(=O)N(CC)c1ccc2c(c1)N(Cc1c[nH]cn1)CCO2 [Compound 264]	active or functionally selective agonists of the α2C receptor subtype
CCCCOC(=O)N(CC)c1ccc2c(c1)N(Cc1c[nH]cn1)CCO2 [Compound 265]	active or functionally selective agonists of the α2C receptor subtype
C=CCS(=O)(=O)Nc1ccc2c(c1)N(Cc1c[nH]cn1)CCO2 [Compound 266]	active or functionally selective agonists of the α2C receptor subtype
CCCOC(=O)Nc1ccc2c(c1)N(Cc1c[nH]cn1)CCO2 [Compound 271]	active or functionally selective agonists of the α2C receptor subtype
